Source: patent publication US6989396B2, “Tropane alkaloid multidrug resistance inhibitors from Erythroxylum pervillei and use of the same” (The Board of Trustees of the University of Illinois, priority 2001, dated 2006)
≈ marks a conversion by molar mass, not a printed value. Like-named read-outs stand apart in the source and are kept apart here.

Legend:
[1] = system: BC1, breast cancer; assay: In vitro cytotoxicity, human tumor panel: BC1; format: cell-based; conditions: Homo sapiens, read-out: ED50 BCI
Method: (§1) Cytotoxicity assay. Compounds 1–9 were evaluated for cytotoxic activity against a panel of human cancer cell lines, including KB-V1 in the presence and absence of VLB, according to an established protocol (68).

[2] = system: Lu1, lung cancer; assay: In vitro cytotoxicity, human tumor panel: Lu1; format: cell-based; conditions: Homo sapiens, read-out: ED50 Lu1
Method: as §1

[3] = system: Col2, colon cancer; assay: In vitro cytotoxicity, human tumor panel: Col2; format: cell-based; conditions: Homo sapiens, read-out: ED50 Col2
Method: as §1

[4] = system: KB, oral epidermoid carcinoma; assay: In vitro cytotoxicity, human tumor panel: KB; format: cell-based; conditions: Homo sapiens, read-out: ED50 KB
Method: as §1

[5] = system: KB-V1, drug resistant KB; assay: In vitro cytotoxicity, human tumor panel: KB-V1 with or without vinblastine; format: cell-based; conditions: for IC50: Homo sapiens, KB-V1, drug-resistant KB assessed in the absence of vinblastine, read-out: ED50 KB-V1−; for ED50 KB-V1+: drug resistant KB assessed in presence of vinblastine (1 μg/mL)
Method: as §1

[6] = system: LNCaP, hormone-dependent prostate cancer; assay: In vitro cytotoxicity, human tumor panel: LNCaP; format: cell-based; conditions: Homo sapiens, LNCaP, read-out: ED50 LNCaP
Method: as §1

[7] = system: SW626, human ovarian adenocarcinoma; assay: In vitro cytotoxicity, human tumor panel: SW626; format: cell-based; conditions: SW626, read-out: ED50 SW626
Method: as §1

[8] = system: HCT-15, colon; assay: In vitro multidrug resistance modulation (DINIB synergy): HCT-15; format: cell-based, human; conditions: increase of cytotoxicity of DINIB 1 × 10^−4 M; modulator μg/mL: verapamil 12.5, cyclosporin A 6.3, pervilleine B 12.5, C 3.1, D 50.0, F 25.0; <25 insignificant, >100 strong synergy
Source text: (§2) Alkaloids 5–7 and 9 were further evaluated for their efficacy as potential modulators of P-glycoprotein. This assay assessed the ability of these test compounds to increase the cytotoxicity of an agent of the MDR phenotype {4,9-dihydro-3-iso-butyl-2-methyl-1-(p-nitrophenacyl)-4,9-dioxo-1H-naphth[2-3-d]imidazolium bromide (DINIB)}, compared with an agent not of the MDR phenotype (5-flurouracil), used as a negative control (73, 74).
(§3) In vitro multidrug resistance assay.

[9] = system: UO-31, renal; assay: In vitro multidrug resistance modulation (DINIB synergy): UO-31; format: cell-based, human; conditions: increase of cytotoxicity of DINIB 1 × 10^−4 M; modulator μg/mL: verapamil 12.5, cyclosporin A 6.3, pervilleine B 12.5, C 3.1, D 50.0, F 25.0; <25 insignificant, >100 strong synergy
Source text: as §2, §3

[10] = system: CAKI-1, renal; assay: In vitro multidrug resistance modulation (DINIB synergy): CAKI-1; format: cell-based, human; conditions: increase of cytotoxicity of DINIB 1 × 10^−4 M; modulator μg/mL: verapamil 12.5, cyclosporin A 6.3, pervilleine B 12.5, C 3.1, D 50.0, F 25.0; <25 insignificant, >100 strong synergy
Source text: as §2, §3

[11] = system: LOX IMVI, melanoma; assay: In vitro multidrug resistance modulation (DINIB synergy): LOX IMVI; format: cell-based, human; conditions: increase of cytotoxicity of DINIB 1 × 10^−4 M; modulator μg/mL: verapamil 12.5, cyclosporin A 6.3, pervilleine B 12.5, C 3.1, D 50.0, F 25.0; <25 insignificant, >100 strong synergy
Source text: as §2, §3

[12] = system: SKOV3 (ovarian adenocarcinoma); assay: Cytotoxicity in ovarian adenocarcinoma SKOV3 (pGp -ve); format: cell-based; conditions: Homo sapiens, SK-OV-3, read-out: IC50 SKOV3 (pGp − ve)
Method: as §1

[13] = system: SKVLB (ovarian adenocarcinoma, multidrug resistance); assay: Multidrug resistance inhibition in SKVLB (pGp +ve); format: cell-based, human; conditions: Homo sapiens
[14] = system: KB-3 cells; assay: Growth inhibitory potential (sulforhodamine B cell survival assay): KB-3; format: cell-based; conditions: Homo sapiens, KB3, 72 h, read-out: IC50 KB-3
Method: (§4) One part of a natural product drug discovery program involves monitoring the potential of plant extracts to reverse multiple drug resistance. […] To investigate the potential of plant extracts or compounds to reverse multidrug-resistance, KB-V1 cells are treated with different concentrations of plant extracts or compounds in the presence (1 μg/ml) or absence of vinblastine.
(§5) Cytotoxic potential. The cytotoxic potential of test substances with KB-3, KB-V1 and KB-8-5 cells was determined as described previously (24). Briefly, various concentrations of test compounds (dissolved in 10 μl of 10% DMSO) were transferred to 96-well plates, and 190 μl aliquots of cell suspensions (5×10^4 cells/ml) were added to each well. The plates then were incubated for 72 hours at 37° C. (100% humidity with a 5% CO2 atmosphere in air), and 100 μl of cold 20% aqueous trichloroacetic acid were added to the growth medium in each well to fix the cells. The cultures were incubated at 4° C. for 30 minutes, washed, air-dried, stained with sulforhodamine B solution, and washed with 1% acetic acid. Finally, 200 μl of 10 mM Tris base were added to each well and the optical densities were determined at 515 nm utilizing an ELISA plate reader. In each case, a zero-day control was performed by adding an equivalent number of cells to several wells and incubating at 37° C. for 30 minutes, and processing as described above. Optical density values obtained with the zero-day control were subtracted, and cell survival, relative to control (solvent-treated) cultures, was calculated. The cytotoxic potential of the compounds with CEM and CEM/VLB100 cells was determined as described by Beck et al. (30). Cells were grown in 24-well plates at a density of 5–6×10^5 cells/ml. At 48 hours, the cell number was determined using a Coulter Counter, with a channelizer to distinguish cells from debris.

[15] = system: KB-V1 cells; assay: Reversal of MDR, cell survival assay: KB-V1 with or without vinblastine; format: cell-based, human; conditions: for IC50: Homo sapiens, KB-V1, absence of vinblastine, 72 hours, read-out: IC50 KB-V1 (−); for Ratio of IC50 values [KB-V1 (−)]/[KB-V1 (+)]: vinblastine 1 μg/ml
Method: as §4
as §5, with “Finally, 200 μl of 10 mM Tris base were added to each well and the optical densities were determined at 515 nm utilizing an ELISA plate reader.” left out

[16] = system: KB-V1 cells; assay: In vivo hollow fiber test: KB-V1; set-up: species or system NCr nu/nu mice; conditions: for growth inhibition, administered as single agents: KB-V1 or KB-8-5 cells in hollow fibers implanted into NCr nu/nu mice; for Calculated inhibition (vinblastine + reversing agent as single agents), KB-V1, i.p. site / Calculated inhibition (vinblastine + reversing agent as single agents), KB-V1, s.c. site: summation of single-agent inhibitions; for Observed inhibition from coadministration with vinblastine, KB-V1, s.c. site / Observed inhibition from coadministration with vinblastine, KB-V1, i.p. site: vinblastine 250 μg/kg + reversing agent 0.136 mmol/kg; for Observed inhibition from coadministration with vinblastine, KB-V1, i.p. site / Growth inhibition, single agent, KB-V1, s.c. site: i.p. injection once daily days 3–6; for Growth inhibition, single agent, KB-V1, s.c. site: vinblastine 250 μg/kg, reversing agents 0.136 mmol/kg
Method: In vivo hollow fiber test. […] Confluent monolayers of KB-3, KB-V1 or KB-8-5 cells were harvested, collected by centrifugation and resuspended in conditioned medium at a concentration of 7.5×10^5 cells/ml.
Test compounds were administrated once daily by intraperitoneal injection from day 3–6 after implantation. Body weights were measure daily.
After incubating at 37° C. for 4 hours, the culture medium was aspirated and the samples were washed twice with normal saline containing 2.5% protamine sulfate solution by overnight incubation at 4° C. […] The formazan was extracted from each sample with DMSO (250 μl/well) for 4 hours at room temperature on a rotation platform.

[17] = read-out: IC50 BSKVLB (pGp + ve)
[18] = read-out: IC50 SKVLB (pGp + ve), addition of adriamycin

| Compound | IC50 [1] | IC50 [2] | IC50 [3] | IC50 [4] | IC50 [5] | ED50 KB-V1+ [5] | IC50 [6] | IC50 [7] | synergy value at a 95% confidence level, HCT-15 [8] | synergy value at a 95% confidence level, UO-31 [9] | synergy value at a 95% confidence level, CAKI-1 [10] | synergy value at a 95% confidence level, LOX IMVI [11] | melting point | IC50 [12] | IC50 [13, 17] | IC50 [13, 18] | IC50 [14] | IC50 [15] | Ratio of IC50 values [KB-V1 (−)]/[KB-V1 (+)] [15] | growth inhibition, administered as single agents [16] | other results |
| --- | --- | --- | --- | --- | --- | --- | --- | --- | --- | --- | --- | --- | --- | --- | --- | --- | --- | --- | --- | --- | --- |
| COc1cc(C=CC(=O)O[C@@H]2C[C@@H]3[C@@H](OC(=O)C=Cc4cc(OC)c(OC)c(OC)c4)[C@@H](O)[C@H](C2)N3C)cc(OC)c1OC [Compound 7, 3α,6β-di-(3,4,5-trimethoxycinnamoyloxy)-7β-hydroxytropane] | 15 µg/mL (≈ 24.4 µM) | 15.1 µg/mL (≈ 24.6 µM) | 4.9 µg/mL (≈ 7.98 µM) | 11 µg/mL (≈ 17.9 µM) | 9 µg/mL (≈ 14.7 µM) | 0.2 µg/mL | 14.1 µg/mL (≈ 23 µM) | 6.5 µg/mL (≈ 10.6 µM) | 758.3 | 562.7 | 387.9 | 13.2 | 59 to 61 °C | – | – | – | – | – | – | – | – |
| COc1cc(C=CC(=O)O[C@H]2C[C@@H]3C[C@H](OC(=O)c4cc(OC)c(OC)c(OC)c4)C[C@H]2N3C)cc(OC)c1OC [Compound 5, 3α-(3,4,5-trimethoxybenzoyloxy)-6β-(3,4,5-trimethoxycinnamoyloxy)tropane] | 9.4 µg/mL (≈ 16.4 µM) | 3.1 µg/mL (≈ 5.42 µM) | 1.3 µg/mL (≈ 2.27 µM) | > 20 µg/mL | 8.8 µg/mL (≈ 15.4 µM) | 0.1 µg/mL | 1 µg/mL (≈ 1.75 µM) | 3.2 µg/mL (≈ 5.6 µM) | 607.6 | 248.7 | 268.1 | 33.3 | – | 3.8 µM | > 10 µM | 0.12 µM | > 35 µM | 15 µM | 88 | not significantly inhibited | Calculated inhibition (vinblastine + reversing agent as single agents), KB-V1, i.p. site [16]: 9.4%; Calculated inhibition (vinblastine + reversing agent as single agents), KB-V1, s.c. site [16]: 3.8%; Observed inhibition from coadministration with vinblastine, KB-V1, s.c. site [16]: 1.4 (P = 0.87) %; Observed inhibition from coadministration with vinblastine, KB-V1, i.p. site ([16]; listed as pervilleine B): 66.8 (P < 0.0001) %; Growth inhibition, single agent, KB-V1, s.c. site [16]: 0% |
| COc1cc(C=CC(=O)O[C@H]2C[C@H]3C[C@H](OC(=O)C=Cc4cc(OC)c(OC)c(OC)c4)[C@@H](C2)N3C)cc(OC)c1OC [Compound 6, 3α,6β-di-(3,4,5-trimethoxycinnamoyloxy)tropane] | 2.8 µg/mL (≈ 4.68 µM) | 2.3 µg/mL (≈ 3.85 µM) | 4.1 µg/mL (≈ 6.86 µM) | 2.2 µg/mL (≈ 3.68 µM) | 9 µg/mL (≈ 15.1 µM) | 0.1 µg/mL | > 20 µg/mL | 1.4 µg/mL (≈ 2.34 µM) | 946.7 | 444.0 | 332.3 | 32.6 | – | 2.8 µM | > 10 µM | 0.08 µM | 3.7 µM | 15 µM | 88 | not significantly inhibited | Calculated inhibition (vinblastine + reversing agent as single agents), KB-V1, i.p. site [16]: 15.9%; Calculated inhibition (vinblastine + reversing agent as single agents), KB-V1, s.c. site [16]: 3.8%; Observed inhibition from coadministration with vinblastine, KB-V1, s.c. site [16]: 0.2 (P = 0.96) %; Observed inhibition from coadministration with vinblastine, KB-V1, i.p. site ([16]; listed as pervilleine C): 77.7 (P < 0.0001) %; Growth inhibition, single agent, KB-V1, s.c. site [16]: 0% |
| cyclosporin A [reference compound] | – | – | – | – | – | – | – | – | 719.1 | 642.1 | 273.3 | 72.9 | – | – | – | – | – | – | – | – | – |
| COc1cc(C=CC(=O)O[C@H]2C[C@@H]3C[C@H](OC(=O)Cc4ccccc4)C[C@H]2N3C)cc(OC)c1OC [Compound 9, 3α-phenylacetoxy-6β-(3,4,5-trimethoxycinnamoyloxy)-tropane] | > 20 µg/mL | > 20 µg/mL | 4.9 µg/mL (≈ 9.89 µM) | > 20 µg/mL | > 20 µg/mL | 0.2 µg/mL | > 20 µg/mL | > 20 µg/mL | 714.7 | 364.4 | 342.1 | 59.2 | 59 to 61 °C | – | – | – | – | – | – | – | – |
